Test results reported in US20130236473A1, “THERAPEUTIC AGENTS AND PROPHYLACTIC AGENTS FOR SYMPTOMS ACCOMPANYING AUTOIMMUNE DISEASES, INFLAMMATORY DISEASES, ALLERGY DISEASES AND ORGAN TRANSPLANTS” (OSAKA UNIVERSITY, priority 2010, published 2013).

How the values were obtained:
IL-6 amplifier [1] = test: Reference Example 5: mIL-6 production on IL-6 amplifier activation with epiregulin in BC-1 cells (ELISA); type: cell-based; conditions: 24 hours, 100 ng/ml mouse epiregulin protein, conditions (e) to (h), inhibitor 0, 0.1, 1 or 10 micromoles/L
Method: After the culture, the production amount of mouse IL-6 (mIL-6) protein in each of the clones, i.e., the amount of mIL-6 protein in the medium solution, was quantified by an ELISA method. In the ELISA method, anti-mIL-6 antibody and an ELISA kit, both manufactured by eBioscience, Inc., were used. In addition, a cell proliferation assay was performed for each of the clones, using a TetraColor ONE kit (Seikagaku Corporation). […]
After the culture, the production amount of mouse IL-6 protein under each condition was quantified by an ELISA method in the same manner as in Reference Example 1. […]

IL-6 amplifier [2] = test: Reference Example 10: hIL-6 gene expression in human synovial fibroblasts with epiregulin (RT-PCR); type: cell-based; conditions: 3 hours, 100 ng/ml epiregulin protein, inhibitor 0 or 10 micromoles/L
Method: In addition, the expression amounts of mIL-6 gene were quantified by a real-time RT-PCR method. The real-time RT-PCR method was performed using a GeneAmp 5700 sequence detection system (Applied Biosystems) and a SYBER green PCR Master Mix (Sigma-Aldrich Co. LLC.). The conditions of the PCR amplification were as follows: the amplification was performed in 40 cycles, each cycle consisting of thermal denaturation (94° C., 15 seconds), annealing (60° C., 30 seconds), and extension reaction (72° C., 30 seconds)). […] After the culture, the expression amount of human IL-6 gene under each condition was quantified by a RT-PCR method in the same manner as in Reference Example 9.

IL-6 amplifier [3] = test: Example 1: mIL-6 protein production on IL-6 amplifier activation in BC-1 cells or MEFs (ELISA); type: cell-based, mouse; conditions: 30 min pretreatment with 0.1, 1 or 10 micromoles/L ErbB1 inhibitor, then conditions (a) to (d), 24 hours, 10% FBS
Method: 2×10^5 mouse BC-1 cells were cultured in an RPMI 1640 medium for 24 hours under each of the following conditions: • (a) in the presence of 10% FBS, • (b) with the addition of 50 ng/ml of hIL-6 protein and 50 ng/ml of hIL-6R protein (hereinafter referred to as “hIL-6/6R proteins”) and in the presence of 10% FBS, • (c) with the addition of 50 ng/ml of mIL-17A protein and in the presence of 10% FBS, • (d) with the addition of hIL-6/6R proteins at 50 ng/ml and mIL-17A protein at 50 ng/ml and in the presence of 10% FBS, • (e) in the absence of FBS, • (f) with the addition of hIL-6/6R proteins each at 50 ng/ml and in the absence of FBS, • (g) with the addition of 50 ng/ml of mIL-17A protein and in the absence of FBS, or • (h) with the addition of hIL-6/6R proteins each at 50 ng/ml and mIL-17A protein at 50 ng/ml and in the absence of FBS.
2×10^5 mouse BC-1 cells or 2×10^5 mouse embryonic fibroblasts (MEFs) were cultured for 30 minutes in an RPMI 1640 medium, in the presence of 0.1, 1, or 10 micromoles/L of PD153065; or in the presence of 0.1, 1, or 10 micromoles/L of PD168393 (Calbiochem). […]
After the culture, the production amount of mouse IL-6 protein under each condition was quantified by an ELISA method. […]

[4] = test system: cytokine-induced arthritis mice; test: Clinical score of arthritis in cytokine-induced arthritis mice (F759 mice); type: in vivo, mouse
Method: On each of days 0, 1, and 2, 100 ng of mIL-6 protein and 100 ng of mIL-17A protein, as cytokines, were injected into the malleolus joints of 8-week-old F759 mice to induce arthritis. At the same time, on each of days 0 to 23, 10 micrograms of PD153035 dissolved in DMSO was injected into the malleolus joints (n=6). Mice injected with the cytokines and DMSO only (n=6), and mice injected with DMSO only (n=6) served as control groups.
From day 0 to day 23, symptom of arthritis was evaluated by clinical scores. Specific examples of the evaluation are described below and in FIG. 2. Specifically, for example, the clinical score is 0 if the movable range of malleolus joint is a healthy state as shown in FIG. 14(A), and the clinical score is 3 if severe arthritis develops and the movable range of malleolus joint is 60° smaller than the healthy case as shown in FIG. 14(B). Further, the clinical score is 1 if the movable range of malleolus joint is 20° smaller than the healthy case, and the clinical score is 2 if the movable range of malleolus joint is 40° smaller than the healthy case.
F759 mice used as cytokine-induced arthritis mice are genetically modified mice in which F759 mutation (in which tyrosine residue 759 (Y) is replaced by phenylalanine (F) in gp130 protein, a receptor of IL-6 protein, etc.) is introduced (Non-Patent Literature 3); and in F759 mice, dysregulation of IL-6 amplifier is observed (Non-Patent Literature 1). Dysregulation of IL-6 amplifier observed in F759 mice is believed to be caused as follows: SOCS3 protein signal transduction, which is dependent on the phosphorylation status of tyrosine residue 759 (Y759) of gp130 protein, is inhibited by F759 mutation, thereby decreasing the action of suppressing STAT3 signals via SOCS3 protein to enhance STAT3-dependent signals. It is known that autoimmune arthritis develops in almost 100% of the mice one to one-and-a-half years after birth. It is also known that arthritis develops earlier by injecting inflammatory cytokines, such as IL-6 and IL-17, into joints (e.g., malleolus joints) of the mice. […]

[5] = test system: experimental autoimmune encephalomyelitis (EAE) mice; test: Clinical score in experimental autoimmune encephalomyelitis (EAE) mice; type: in vivo, mouse; conditions: 5 mg intraperitoneal on each of days 0 to 6, scored day 0 to 13, control DMSO
Method: EAE mice were made according to the method described in Non-Patent Literature 1.
200 micrograms of MOG (myelin oligodendrocyte glycoprotein) peptide (peptide comprising residues 33 to 55 of the full-length amino acid sequence of mouse MOG protein (amino acid sequence shown in SEQ ID NO: 9)) dissolved in Complete Freund's adjuvant (CFA) was administered to the tail of a 7- to 8-week-old C57/B6-strain mouse by subcutaneous injection, followed by intravenous injection of 200 nanograms of pertussis toxin (PTx).
A MOG-specific CDCT cell group was obtained according to a ordinary method from the spleen removed after feeding the above mouse for 10 days. 2×10^5 cells of the MOG-specific CDCT cells were cultured with 5×10^5 C57/B6-strain mouse bone marrow-derived dendritic cells (BMDCs) pulsed with MOG peptide in an RPMI 1640 medium containing 10% FBS in the presence of 20 ng/ml of recombinant IL-23 (rIL-23) protein in an incubator at a temperature of 37° C. to obtain a cell group containing pathogenic Th17 cells. […]
From day 0 to day 12, the clinical score in each mouse was evaluated according to the method described in Non-Patent Literature 1. […]
From day 0 to day 13, the clinical score in each mouse was evaluated according to the method described in Non-Patent Literature 1.

IL-6 amplifier [6] = test: Reference Example 3: effect of growth factors on mIL-6 protein production in BC-1 cells (ELISA); type: cell-based, mouse; conditions: 24 hours, hIL-6/6R and mIL-17A each 50 ng/ml, growth factor added, versus none added
Method: 2×10^5 mouse BC-1 cells were cultured for 24 hours in an RPMI 1640 medium containing hIL-6/6R proteins each at 50 ng/ml and mIL-17A protein at 50 ng/ml under the condition in which 100 ng/ml of mouse EGF protein (R&D Systems, Inc.), 100 ng/ml of human HB-EGF protein (R&D Systems, Inc.), 0.1, 1, 10, or 100 ng/ml of mouse epiregulin protein (R&D Systems, Inc.), 50 ng/ml of mouse VEGF protein (R&D Systems, Inc.), 50 ng/ml of mouse FGF7 protein (R&D Systems, Inc.), or 300 ng/ml of mPDGF-CC protein (R&D Systems, Inc.) was separately added. Mouse BC-1 cells cultured under the condition in which only hIL-6/6R proteins and mIL-17A protein were added served as a control group.
After the culture, the production amount of mIL-6 protein under each condition was quantified by an ELISA method in the same manner as in Reference Example 1. FIGS. 5 and 6 show the results.

[7] = mIL-6 + mIL-17A days 0, 1, 2, 10 micrograms into malleolus joints on each of days 0 to 23, scored day 0 to 23

COc1cc2ncnc(Nc3cccc(Br)c3)c2cc1OC [PD153035, 4-[(3-Bromophenyl)amino]-6,7-dimethoxyquinazoline] was tested, and the “Increase in the amount of transcription of mIL-6 due to epiregulin protein (production amount of mouse IL-6 protein by ELISA)” value (IL-6 amplifier [1]) was “inhibited in a manner dependent on the addition amount”, the “Increase in the amount of transcription of hIL-6 due to epiregulin protein” value (IL-6 amplifier [2]) was “inhibited in a manner dependent on the addition amount” and the “increase in the expression amount of mIL-6 protein due to activation of IL-6 amplifier” value (IL-6 amplifier [3]) was “can be suppressed”. The “symptom of arthritis (clinical score)” value [4, 7] was “symptom of cytokine-induced arthritis was alleviated, or worsening of symptom of cytokine-induced arthritis was suppressed”.
With C=CC(=O)Nc1ccc2ncnc(Nc3cccc(Br)c3)c2c1 [PD168393, 4-[(3-Bromophenyl)amino]-6-acrylamidoquinazoline] the “increase in the expression amount of mIL-6 protein due to activation of IL-6 amplifier” value (IL-6 amplifier [3]) was “can be suppressed” and the “symptom of arthritis (clinical score)” value ([4]; mIL-6 + mIL-17A days 0, 1, 2, 10 micrograms into malleolus joints on each of days 0 to 11, scored day 0 to 23) was “symptom of cytokine-induced arthritis was alleviated, or worsening of symptom of cytokine-induced arthritis was suppressed”.
COc1cc2ncnc(Nc3ccc(F)c(Cl)c3)c2cc1OCCCN1CCOCC1 [gefitinib, N-(3-chloro-4-fluoro-phenyl)-7-methoxy-6-(3-morpholin-4-ylpropoxy) quinazolin-4-amine] was tested, and the “symptom of arthritis (clinical score)” value [4, 7] was “symptom of cytokine-induced arthritis was alleviated, or worsening of symptom of cytokine-induced arthritis was suppressed” and the “symptom of experimental autoimmune encephalomyelitis (clinical score)” value [5] was “symptom of experimental autoimmune encephalomyelitis was alleviated, or worsening of symptom of experimental autoimmune encephalomyelitis was suppressed”.
With “EGF protein: mouse EGF protein (R&D Systems, Inc.), ligand of ErbB1 protein (NSYPGCPSSYDGYCLNGGVCMHIESLDSYTCNCVIGYSGDRCQTRDLRWWELR)” the “production amount of mIL-6 protein” value (IL-6 amplifier [6]) was “significantly (p value <0.01) increased”.
